The values below come from ChEMBL document CHEMBL3879907, “8-azabicyclo[3.2.1]octane compounds as mu opioid receptor antagonists” (2014).

The test system of assay [1] is Mus musculus. Kind of assay: Reversal of morphine-induced delayed gastrointestinal transit in sc dosed mouse compound administered prior to morphine challenge followed by non-nutritive, non-absorbable charcol meal administration by oral gavage at 5 mins post morphine challenge for 60 mins. Particulars: read-out: ID50 (the source's name). In kind it is functional.
The target of assay [2] is Kappa-type opioid receptor (Cavia porcellus, UniProt P41144). Kind of assay: Displacement of [3H]-diprenorphine from guinea pig kappa opioid receptor expressed in CHOK1 cell membranes. Particulars: cho-k1. A general note: Displacement assays read how much labelled ligand stays bound in the presence of the test substance.
The target of assay [3] is Delta-type opioid receptor (Homo sapiens, UniProt P41143). Kind of assay: Displacement of [3H]-diprenorphine from human delta opioid receptor expressed in cell membranes.
Assay [4] concerns the target Mu-type opioid receptor (Homo sapiens) (UniProt P35372). Kind of assay: Intrinsic activity at human mu opioid receptor expressed in CHOK1 cell membranes at 0.00001 to 20 uM after 30 mins by GTP-Eu nucleotide exchange assay relative to DAMGO. Format: functional. Particulars: CHO-K1.
Assay [5] deals with Mus musculus. Kind of assay: Reversal of morphine-induced delayed gastrointestinal transit in po dosed mouse compound administered prior to morphine challenge followed by non-nutritive, non-absorbable charcol meal administration by oral gavage at 5 mins post morphine challenge for 60 mins. In kind it is functional. As to conditions: read-out: ID50 (the source's name).

Chain of Delta-type opioid receptor (P41143 whole entry): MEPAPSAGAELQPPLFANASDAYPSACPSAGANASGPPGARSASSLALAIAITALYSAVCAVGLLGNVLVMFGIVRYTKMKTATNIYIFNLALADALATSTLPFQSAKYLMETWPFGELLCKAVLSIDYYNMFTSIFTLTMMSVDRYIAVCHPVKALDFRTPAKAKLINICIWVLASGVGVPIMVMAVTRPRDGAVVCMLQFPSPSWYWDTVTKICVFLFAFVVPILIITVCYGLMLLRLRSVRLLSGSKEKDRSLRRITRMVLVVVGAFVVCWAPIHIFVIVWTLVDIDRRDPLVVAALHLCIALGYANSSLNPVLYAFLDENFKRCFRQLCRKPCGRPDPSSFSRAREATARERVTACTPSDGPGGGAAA
Chain of Mu-type opioid receptor (Homo sapiens) (P35372 whole entry): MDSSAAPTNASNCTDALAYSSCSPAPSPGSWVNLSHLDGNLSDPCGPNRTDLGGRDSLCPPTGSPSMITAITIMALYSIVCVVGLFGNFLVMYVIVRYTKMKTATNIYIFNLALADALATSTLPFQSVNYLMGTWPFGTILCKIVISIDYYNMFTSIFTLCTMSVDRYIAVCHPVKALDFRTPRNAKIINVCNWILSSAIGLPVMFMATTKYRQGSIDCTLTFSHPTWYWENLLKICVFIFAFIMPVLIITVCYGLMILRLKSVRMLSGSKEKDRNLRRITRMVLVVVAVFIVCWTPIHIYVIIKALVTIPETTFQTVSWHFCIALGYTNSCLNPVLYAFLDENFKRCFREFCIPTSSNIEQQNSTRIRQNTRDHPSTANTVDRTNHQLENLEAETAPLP
Chain of Kappa-type opioid receptor (P41144 whole entry): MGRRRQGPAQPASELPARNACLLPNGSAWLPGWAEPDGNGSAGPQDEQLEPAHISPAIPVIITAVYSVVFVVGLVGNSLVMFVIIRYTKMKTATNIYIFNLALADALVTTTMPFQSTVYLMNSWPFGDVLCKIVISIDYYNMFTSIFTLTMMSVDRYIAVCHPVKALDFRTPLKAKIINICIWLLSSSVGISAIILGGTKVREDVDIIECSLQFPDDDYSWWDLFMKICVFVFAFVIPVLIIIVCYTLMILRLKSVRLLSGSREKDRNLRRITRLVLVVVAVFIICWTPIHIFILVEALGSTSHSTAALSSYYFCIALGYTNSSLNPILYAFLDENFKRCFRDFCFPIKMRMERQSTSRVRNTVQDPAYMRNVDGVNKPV

Consider `NC(=O)c1cccc([C@H]2C[C@H]3CC[C@@H](C2)N3CCN(CC2CCC(F)(F)CC2)C(=O)CO)c1`, for which the ED50 in assay [1] and in assay [5] was 0.1 to 3 mg/kg each time. Moreover, the pKi in assay [2] and in assay [3] was 7 to 10.5 each time. In addition, the Intrinsic activity in assay [4] is below 40%.
With `NC(=O)c1cccc([C@H]2C[C@H]3CC[C@@H](C2)N3CCN(Cc2ccccc2)C(=O)CO)c1`, the ED50 in assay [1] and in assay [5] was 0.1 to 3 mg/kg each time. Further, the negative-log Ki (pKi) in assay [2] and in assay [3] was 7 to 10.5 throughout.
For `NC(=O)c1cccc([C@H]2C[C@H]3CC[C@@H](C2)N3CCN(CCc2ccccc2)C(=O)CO)c1`, the ED50 in assay [1] and in assay [5] was 0.1 to 3 mg/kg in each case. This compound also returned a negative logarithm of the Ki (pKi) in assay [3] of 7 to 10.5.
As for `NC(=O)c1cccc([C@H]2C[C@H]3CC[C@@H](C2)N3CCN(CC2CCCCC2)C(=O)[C@@H](O)CO)c1.O=C(O)C(=O)O`, the ED50 in assay [1] and in assay [5] was 0.1 to 3 mg/kg in each case. The negative-log Ki (pKi) in assay [2] and in assay [3] was 7 to 10.5 each time.
As to `NC(=O)c1cccc([C@H]2C[C@H]3CC[C@@H](C2)N3CCN(CC2CCCCC2)C(=O)CO)c1`, the ED50 in assay [1] and in assay [5] was 0.1 to 3 mg/kg each time. This compound also returned an Intrinsic activity in assay [4] below 40%.
As to `NC(=O)c1cccc([C@H]2C[C@H]3CC[C@@H](C2)N3CCN(CC2CCCCC2)C(=O)[C@@H](O)CO)c1.O=S(=O)(O)O` [AXELOPRAN SULFATE], the ED50 in assay [1] and in assay [5] was 0.1 to 3 mg/kg each time.
Take `NC(=O)c1cccc([C@H]2C[C@H]3CC[C@@H](C2)N3CCN(CC2CCCCC2)C(=O)[C@@H](O)CO)c1` [AXELOPRAN]: the ED50 in assay [1] and in assay [5] was 0.1 to 3 mg/kg throughout.
For the compound `O=C(CO)N(CCN1[C@@H]2CC[C@H]1C[C@@H](c1cccc(O)c1)C2)Cc1ccc(F)cc1`, the pKi in assay [2] and in assay [3] was 7 to 10.5 each time. The same compound gave an Intrinsic activity in assay [4] below 40%.
Consider `CC(=O)OCC(=O)N(CCN1[C@@H]2CC[C@H]1C[C@@H](c1cccc(O)c1)C2)Cc1ccccc1.O=C(O)C(F)(F)F`, for which the pKi in assay [2] and in assay [3] was 7 to 10.5 each time. Besides, in assay [4], the Intrinsic activity is below 40%.
For `O=C(O)CC1(CC(=O)N(CCN2[C@@H]3CC[C@H]2C[C@@H](c2cccc(O)c2)C3)CC2CCCCC2)CCCC1`, the pKi in assay [2] and in assay [3] was 7 to 10.5 each time. In addition, the Intrinsic activity in assay [4] was below 40%.
On to `CC(C)(CO)C(=O)N(CCN1[C@@H]2CC[C@H]1C[C@@H](c1cccc(C(N)=O)c1)C2)Cc1c(F)cccc1F.O=C(O)C(F)(F)F`, for which the pKi in assay [2] and in assay [3] was 7 to 10.5 throughout. In assay [4], this compound returned an Intrinsic activity below 40%.
For `NC(=O)c1cccc([C@H]2C[C@H]3CC[C@@H](C2)N3CCN(Cc2ccccc2)C(=O)[C@@H](O)CO)c1.O=C(O)C(F)(F)F`, the pKi in assay [2] and in assay [3] was 7 to 10.5 throughout. Also, the Intrinsic activity in assay [4] was below 40%.
As for `O=C(C1CCCC1)N(CCN1[C@@H]2CC[C@H]1C[C@@H](c1cccc(O)c1)C2)CC1CCCCC1`, the negative logarithm of the Ki (pKi) in assay [2] and in assay [3] was 7 to 10.5 in each case. The same compound gave an Intrinsic activity in assay [4] below 40%.
With `NC(=O)c1cccc([C@H]2C[C@H]3CC[C@@H](C2)N3CCN(CC2CCCCC2)C(=O)CCCO)c1`, the negative-log Ki (pKi) in assay [2] and in assay [3] was 7 to 10.5 each time. In assay [4], this compound had an Intrinsic activity below 40%.
For `NCC(=O)N(CCN1[C@@H]2CC[C@H]1C[C@@H](c1cccc(C(N)=O)c1)C2)CC1CCCCC1`, the pKi in assay [2] and in assay [3] was 7 to 10.5 each time. This compound also yielded an Intrinsic activity in assay [4] below 40%.
`COC(=O)CCC(=O)N(CCN1[C@@H]2CC[C@H]1C[C@@H](c1cccc(C(N)=O)c1)C2)CC1CCCCC1`: the pKi in assay [2] and in assay [3] was 7 to 10.5 throughout. The Intrinsic activity in assay [4] is below 40%.
For the compound `CC(=O)N(CCN1[C@@H]2CC[C@H]1C[C@@H](c1cccc(O)c1)C2)Cc1ccccc1`, the pKi in assay [2] and in assay [3] was 7 to 10.5 throughout. For the same compound, the Intrinsic activity in assay [4] was below 40%.
Consider `CS(=O)(=O)N(CCN1[C@@H]2CC[C@H]1C[C@@H](c1cccc(C(N)=O)c1)C2)Cc1c(F)cccc1F.O=C(O)C(F)(F)F`, for which the pKi in assay [2] and in assay [3] was 7 to 10.5 each time. Further, the Intrinsic activity in assay [4] was below 40%.
Take `C[C@H](O)C(=O)N(CCN1[C@@H]2CC[C@H]1C[C@@H](c1cccc(C(N)=O)c1)C2)CC1CCC(F)(F)CC1.O=C(O)C(F)(F)F`: the negative logarithm of the Ki (pKi) in assay [2] and in assay [3] was 7 to 10.5 each time. The Intrinsic activity in assay [4] was below 40%.
As for `O=C(O)CC(=O)N(CCN1[C@@H]2CC[C@H]1C[C@@H](c1cccc(O)c1)C2)Cc1cccc(F)c1`, the negative logarithm of the Ki (pKi) in assay [2] and in assay [3] was 7 to 10.5 in each case. The compound also showed an Intrinsic activity in assay [4] below 40%.
Turning to `CC(CO)(CO)C(=O)N(CCN1[C@@H]2CC[C@H]1C[C@@H](c1cccc(C(N)=O)c1)C2)CC1CCC1.O=C(O)C(F)(F)F`, the pKi in assay [2] and in assay [3] was 7 to 10.5 throughout. This compound showed an Intrinsic activity in assay [4] below 40%.
Regarding `NC(=O)c1cccc([C@H]2C[C@H]3CC[C@@H](C2)N3CCN(CCc2ccc(O)cc2)C(=O)CO)c1.O=C(O)C(F)(F)F`, the pKi in assay [2] and in assay [3] was 7 to 10.5 in each case. In assay [4], this compound registered an Intrinsic activity below 40%.
In the case of `CCN(CC)CC[C@H](O)C(=O)N(CCN1[C@@H]2CC[C@H]1C[C@@H](c1cccc(C(N)=O)c1)C2)CC1CCCCC1`, the negative logarithm of the Ki (pKi) in assay [2] and in assay [3] was 7 to 10.5 each time. Besides, in assay [4], the Intrinsic activity is below 40%.
`CN(C)CC[C@H](O)C(=O)N(CCN1[C@@H]2CC[C@H]1C[C@@H](c1cccc(C(N)=O)c1)C2)CC1CCC(F)(F)CC1.O=C(O)C(F)(F)F.O=C(O)C(F)(F)F`: the pKi in assay [2] and in assay [3] was 7 to 10.5 throughout. In assay [4], this compound came in with an Intrinsic activity below 40%.
`C[C@H](CN1[C@@H]2CC[C@H]1C[C@@H](c1cccc(O)c1)C2)N(Cc1ccccc1)C(=O)C1CC1`: the pKi in assay [2] and in assay [3] was 7 to 10.5 in each case. The Intrinsic activity in assay [4] is below 40%.
Take `O=C([C@@H](O)Cc1ccccc1)N(CCN1[C@@H]2CC[C@H]1C[C@@H](c1cccc(O)c1)C2)CC1CCCCC1`: the pKi in assay [2] and in assay [3] was 7 to 10.5 in each case. In assay [4], this compound showed an Intrinsic activity below 40%.
As to `CS(=O)(=O)CC(=O)N(CCCN1[C@@H]2CC[C@H]1C[C@@H](c1cccc(C(N)=O)c1)C2)CC1CCCCC1`, the pKi in assay [2] and in assay [3] was 7 to 10.5 throughout. In assay [4], this compound gave an Intrinsic activity below 40%.
On to `CC1(C)C(CN(CCN2[C@@H]3CC[C@H]2C[C@@H](c2cccc(C(N)=O)c2)C3)C(=O)CO)C1(C)C`, for which the pKi in assay [2] and in assay [3] was 7 to 10.5 throughout. The same compound came in with an Intrinsic activity in assay [4] below 40%.
As for `CS(=O)(=O)CC(=O)N(CCN1[C@@H]2CC[C@H]1C[C@@H](c1cccc(C(N)=O)c1)C2)Cc1ccccc1.O=C(O)C(F)(F)F`, the pKi in assay [2] and in assay [3] was 7 to 10.5 each time. In assay [4], the Intrinsic activity was below 40%.
For the compound `O=C(CO)N(CCN1[C@@H]2CC[C@H]1C[C@@H](c1cccc(O)c1)C2)Cc1c(F)cccc1F`, the pKi in assay [2] and in assay [3] was 7 to 10.5 throughout. Besides, the Intrinsic activity in assay [4] is below 40%.
Regarding `CC(=O)N(CCCN1[C@@H]2CC[C@H]1C[C@@H](c1cccc(C(N)=O)c1)C2)CC1CCCCC1`, the pKi in assay [2] and in assay [3] was 7 to 10.5 in each case. The compound also had an Intrinsic activity in assay [4] below 40%.
As for `NC(=O)c1cccc([C@H]2C[C@H]3CC[C@@H](C2)N3CCN(CCCC2CCCCC2)C(=O)CO)c1`, the negative logarithm of the Ki (pKi) in assay [2] and in assay [3] was 7 to 10.5 in each case. Besides, the Intrinsic activity in assay [4] was below 40%.
On to `C[C@H](O)C(=O)N(CCN1[C@@H]2CC[C@H]1C[C@@H](c1cccc(C(N)=O)c1)C2)Cc1c(F)cccc1F.O=C(O)C(F)(F)F`, for which the pKi in assay [2] and in assay [3] was 7 to 10.5 each time. For the same compound, in assay [4], the Intrinsic activity was below 40%.

One may read the pKi as −log10 of the Ki, conventionally taken in molar units. A lower pKi goes with a large Ki.
